Assay results: patent US20050261306A1, “Anti-neurodegenerative agents” (priority 2002, published 2005)

Experiments:
NAIP = NAIP production by western blotting in retinoic acid treated H-SY5Y cells (Example 2); assay type: cell-based; settings: low or high concentration of retinoic acid, 30 μl/ml of 10 mM candidate compound solution, one day, vs controls (lanes 1 and 3)
Experimental: • (1) 3 ml/well of DMEM-HG medium containing H-SY5Y cells (ATCC CRL 2266 strain obtained from American Type Culture Collection; 1×10^5 cells/ml), 10% fetal bovine serum (FBS), 100 units/ml penicillin, and 100 μg/ml streptomycin was aliquoted into each well of a 6 well plate, and incubated for two days at 37° C. Either 3 μl/well (lane 2) or 15 μl/well (lane 4) of all-trans retinoic acid (2 mM) was then added to each well. Wells were then incubated for tree days at 37° C. • (2) Next, 30 μl/ml of candidate compound solution (10 mM) was added to each well and incubated for one day at 37° C. After incubation, each well was washed with 0.25 M NaCl, then filled with 10% trichloroacetic acid (TCA) on ice, and kept on ice for ten minutes. Cells were collected with a scrap and centrifuged (14,000 rpm, ten minutes, 4° C.). To prepare the samples for electrophoresis, 100 μl of urea TX solution (9 M urea solution containing 2% Triton X-100 and 5% 2-mercaptoethanol), 25 μl of 10% lithium dodecyl sulfate (LDS) solution, and 2 μl of 2M Tris solution were added to the obtained pellets. The samples were stored at −80° C. • (3) The samples for electrophoresis obtained in (2) were homogenized and then 10 μl of each sample was loaded onto READYGELSJ (Bio Rad Laboratories) and electrophoresed at 120 V for 75 minutes to conduct SDS-PAGE. […]

Mongolian gerbils = experiment: Mongolian gerbil common carotid artery occlusion, hippocampus CA1 region histology (Examples 6-1 to 6-4); assay type: in vivo; settings: oral, 8, 40, 80 or 240 mg; carotid arteries occluded for ten minutes; hematoxylin-eosin sections
Experimental: A candidate compound was dissolved in physiological saline solution to prepare a 100 mM solution with the pH adjusted to 3 to 4 with 1 N NaOH as necessary. This solution was stored. The solution was diluted with physiological saline at time of use to prepare 0.5 ml of a solution containing 8 mg (Example 6-1), 40 mg (Example 6-2), 80 mg (Example 6-3), or 240 mg (Example 6-4) of a candidate compound. The above solution was administered to Mongolian gerbils. In Examples 6-1 to 6-3, 0.5 ml of the above solution was orally administered every 24 hours. In Example 6-4 the solutions was administered once.
Two hours after the second administration in Examples 6-1 to 6-3, both Mongolian gerbil common carotid arteries were occluded for ten minutes. The gerbils were sacrificed five days later. Two hours after administration in Example 6-4, both Mongolian gerbil common carotid arteries were occluded for ten minutes, and the gerbils were sacrificed three days later. Hematoxylin-eosin stained cross-sections of the brain hippocampus CA1 region tissue were prepared, and the stained sections were expand. […]

ALS model mice = experiment: Therapeutic effect in ALS model mice (Cu/Zn-SOD gene transgenic mouse) (Example 7); assay type: in vivo
Experimental: The in vivo therapeutic effect of compound 1 was examined using an Amyotrophic Lateral Sclerosis (ALS) model animal.
A Cu/Zn-SOD gene transgenic mouse (Saishin Igaku, Vol. 57 (7), “new Amyotrophic Lateral Sclerosis (ALS) model animals”, July, 2002: p. 1622-1627: obtained from Dr. Masashi Aoki at Tohoku University, School of Medicine, Neurology) was used. The ALS model mice were divided into three groups (physiological saline administered group, compound 1 (8 mg/kg) administered group, compound 1 (40 mg/kg) administered group). Physiological saline, compound 1 (8 mg/kg), and compound 1 (40 mg/kg) were orally administered to each ALS mouse once a day from about 7 days before the predicted day of the symptom development (138-139 days after birth) until the day the mice died.

HeLa cells = experiment: Cell-death suppressing effect in HeLa cells with cell-death inducing agent, Alamar Blue viable cell count (Example 3); assay type: cell-based; settings: final concentration of 10 μM of each compound at the time of incubation
Experimental: • (1) HeLa cells (ATCC CCL2 strain obtained from American Type Culture Collection; 1×10^6 cells/ml) were incubated for ten hours at 37° C. under 5% CO2 in DMEM-HG medium supplemented with 10% FBS, 100 units/ml penicillin, and 100 μg/ml streptomycin in a T75 flask. A 250 μl solution containing a candidate compound (10 μM-10 mM) was added to 25 ml of the above culture and incubated for an additional 1, 1.5, or 2 days at 37° C. under 5% CO2. Cells were recovered, washed with the above medium, and counted. The cells were resuspended in the above fresh medium so the medium contained 1×10^5 cells/ml. • (2) 150 μl of the suspension obtained in (1) was added into each well of a 96 well plate and the plate was incubated for four hours at 37° C. […] After ten hours, luminescence was measured with a luminescence detector to determine the viable cell count at excitation and detection wavelengths of 530 nm and 560 nm, respectively. Moreover, the viable cell count of the control, which was prepared in the same way except that a candidate compound solution was not added “Control”) or DMSO was added instead of a candidate compound “DMSO”), was also determined. […]

Row | SMILES | 160 kDa bands, presumably derived from NAIP (NAIP) | suppression of cell deformation and deciduation in the CA1 region (Mongolian gerbils) | Days before symptom development (P < 0.01) (ALS model mice; 8 mg/kg orally once a day) [days] | Days between symptom development and death (P < 0.01) (ALS model mice; 8 mg/kg orally once a day) [days] | Days of survival (P < 0.01) (ALS model mice; 8 mg/kg orally once a day) [days] | Days before symptom development (P < 0.01) (ALS model mice; 40 mg/kg orally once a day) [days] | Days between symptom development and death (P < 0.01) (ALS model mice; 40 mg/kg orally once a day) [days] | Days of survival (P < 0.01) (ALS model mice; 40 mg/kg orally once a day) [days] | effect on onset and on period between development of symptoms and death (ALS model mice; 40 mg/kg orally once a day) | Result (cell-death suppressing effect, tests of Example 3) (HeLa cells)
1 | Clc1ccc(N2CCN(Cc3c[nH]c4ncccc34)CC2)cc1 [Compound 1] | significantly strong 160 kDa bands | dose-dependent suppression of cell deformation and deciduation in the CA1 region | 138.1 ± 1.9 | 23.6 ± 2.0 | 161.7 ± 3.3 | 145.2 ± 1.8 | 28.9 ± 1.6 | 174.6 ± 2.4 | delaying the onset and prolonging the period between the development of symptoms and the death | 
2 | Cc1c(C2CCN(CCc3ccccc3)CC2)noc1-c1ccc(Cl)cc1 [Compound 2, 5-(4-chlorophenyl)-4-methyl-3-(1-(2-phenylethyl)piperidin 4-yl) isoxazole] |  |  |  |  |  |  |  |  |  | + or ±
